Measured values published in article PMC8556085, “Antimicrobial and Antioxidant Secondary Metabolites from Trifolium baccarinii Chiov. (Fabaceae) and Their Mechanisms of Antibacterial Action” (BioMed Research International, 2021).
In brackets after ≈: the same amount, converted by molar mass. Marks after values point to notes of the source that are not given here.

Columns and labels:
[1] = Gallic acid equivalent antioxidant capacity (GEAC) assay; details: ABTS radical, 420 nm, 240 s; mean ± SD
Protocol: The GEAC test was performed as described previously with some slight modifications. The laccase was purified from Sclerotinia sclerotiorum according to the described protocol. 20 μL of laccase (1 mM stock solution), 20 μL of test sample, 10 μL of ABTS (2,2′-azino-bis(3-ethylbenzothiazoline-6-sulfonic acid) (74 mM stock solution), and 950 μL of acetate buffer (pH = 5.0, 100 mM) were added in a quartz cuvette. The concentrations of the samples in the assay mixture were 800, 400, 200, 100, and 10 μg/mL for the extracts and 200, 100, 50, 25, and 12.5 μg/mL for the isolated compounds. The content of the generated ABTS^●+ radical was measured at 420 nm after 240 s reaction time and was converted to gallic acid equivalents by the use of a calibration curve (Pearson's correlation coefficient: r = 0.998) constructed with 0, 4, 10, 14, 28, 56, and 84 μM gallic acid standards rather than Trolox. Experiments were done in triplicate and repeated three times with similar results.

[2] = test system: Cryptococcus neoformans H99; assay: Broth microdilution MIC/MMC; assay type: cell-based
Protocol: (§1) The antimicrobial activity was performed against five bacterial and two fungal species. The selected microorganisms were the Gram-positive (Staphylococcus aureus ATCC25923, methicillin-resistant Staphylococcus aureus 03 (MRSA03), and methicillin-resistant Staphylococcus aureus 04 (MRSA04)) and Gram-negative (Pseudomonas aeruginosa ATCC27853 and Escherichia coli S2(1)) bacteria and yeast strains of Candida albicans ATCC10231 and Cryptococcus neoformans H99. These microorganisms were taken from our laboratory collection. The fungal and bacterial strains were conserved on Sabouraud Dextrose Agar (SDA, Conda, Madrid, Spain) and nutrient agar (NA, Conda) slants, respectively.
(§2) The antimicrobial activity was investigated by determining the minimum inhibitory concentrations (MICs), minimum bactericidal concentrations (MBC), and minimum fungicidal concentrations (MFCs). MICs of extracts/compounds were monitored using the broth microdilution method. Dimethyl sulfoxide (DMSO, Fisher Chemicals) was used to dissolve the test sample to produce a stock solution that was twofold serially diluted in Mueller-Hinton broth (MHB) for bacteria and Sabouraud Dextrose Broth (SDB) for fungi to obtain a concentration range of 4096 to 0.25 μg/mL. One hundred microliters of each concentration was introduced into a well (96-well microplate) containing 90 μL of SDB or MHB and 10 μL of inoculum (at 1 × 10^6 CFU/mL for bacteria and 1 × 10^5 spores/mL for yeasts) which were added to obtain a final concentration range of 2048 to 0.125 μg/mL. Plates were covered and incubated on the shaker at 37°C, 30°C, and 30°C during 24 h, 48 h, and 72 h for bacteria, Candida albicans, and Cryptococcus neoformans, respectively. The MICs were visually assessed after the incubation period and were considered the lowest sample concentration that inhibits the growth or the visual growth of the organism.
(§3) The positive controls were oxacillin (Sigma-Aldrich, Steinheim, Germany) for bacteria and nystatin (Sigma-Aldrich, Steinheim, Germany) for yeasts, and the negative control was broth with 20 μL of DMSO. The assay was carried out in triplicate.

[3] = test system: methicillin-resistant Staphylococcus aureus 04 (MRSA04); assay: Broth microdilution MIC/MMC; assay type: cell-based; details: for MMC/MIC / MBC: MRSA04; for MBC / MIC: Staphylococcus aureus; for MIC: MRSA04, 24 h, 37°C, read-out: MIC
Protocol: as §1, §2, §3

[4] = test system: Candida albicans ATCC10231; assay: Broth microdilution MIC/MMC; assay type: cell-based
Protocol: as §1, §2, §3

[5] = test system: methicillin-resistant Staphylococcus aureus 03 (MRSA03); assay: Broth microdilution MIC/MMC; assay type: cell-based; details: for MMC/MIC / MBC: MRSA03; for MBC / MIC: Staphylococcus aureus; for MIC: MRSA03, 24 h, 37°C, read-out: MIC
Protocol: as §1, §2, §3

Escherichia coli S2(1) = assay: Broth microdilution MIC/MMC; assay type: cell-based; details: for MIC: 24 h, 37°C, read-out: MIC
Protocol: as §1, §2, §3

[6] = test system: Pseudomonas aeruginosa ATCC27853; assay: Broth microdilution MIC/MMC; assay type: cell-based; details: for MBC / MMC/MIC: Pseudomonas aeruginosa ATCC27853; for MIC: Pseudomonas aeruginosa ATCC27853, 24 h, 37°C, read-out: MIC
Protocol: as §1, §2, §3

[7] = test system: Staphylococcus aureus ATCC25923; assay: Broth microdilution MIC/MMC; assay type: cell-based; details: for MBC / MMC/MIC: Staphylococcus aureus ATCC25923; for MIC: Staphylococcus aureus ATCC25923, 24 h, 37°C, read-out: MIC
Protocol: as §1, §2, §3

[8] = DPPH free radical scavenging assay; details: mean ± SD
Protocol: The free radical scavenging activity of extracts and compounds was evaluated according to the described method. The EC50 (μg/mL), which is the amount of sample necessary to inhibit by 50% the absorbance of free radical DPPH, was calculated. Vitamin C was used as a standard control. All the analyses were carried out in triplicate and repeated three times.

[9] = test system: methicillin-resistant Staphylococcus aureus and methicillin-sensitive S. aureus strains; parameters: method as in PMID 27284353; details: MRSA and MSSA strains, previous study; cited from earlier work
[10] = test system: tested bacteria and yeasts; assay: Broth microdilution MIC/MMC, summary over all strains; assay type: cell-based
Protocol: as §1, §2, §3

catalase = assay: Catalase activity in treated bacterial cell lysates; assay type: cell-based; details: Staphylococcus aureus ATCC25923 and MRSA03, MIC and 1/2xMIC, 24 h
Protocol: (§4) (3) Antioxidant Enzyme Activities. For evaluation of catalase and superoxide dismutase (SOD) activities, Staphylococcus aureus ATCC25923 and MRSA03 (1.5 × 10^8 CFU/mL, 500 μL) cultures from the late exponential growth phase were treated with MIC and 1/2xMIC of the methanol extract (500 μL), compound 5 (500 μL), and oxacillin (500 μL) solutions and incubated at 37°C for 24 h. The suspension was centrifuged at 3000 rpm for 5 min to separate the supernatant. The pellet was washed twice with PBS and resuspended in 500 μL of cell lysate buffer (1 mM EDTA, 10 Mm Tris-HCl, 0.1% Triton-X-100, and 150 mM NaCl) and incubated at 37°C for 1 h. Contents were then centrifuged at 3000 rpm for 5 min, and the supernatant was collected for enzyme activity assays.
Catalase activity. This was assessed by using a kit (Sigma, catalogue no. CAT100) with a cell lysate. Briefly, 750 μL of assay buffer (50 mM) was mixed with 25 μL of 50 mM H2O2 and 10 μL of cell lysate. […] The absorbance was monitored at 520 nm, and the catalase activity was calculated based on the following equation: [Δμ moles (H2O2) × d × 100)/V × t], where Δμ moles (H2O2) is the difference in amount of H2O2 added to the reaction mixture between blank and given samples, d is the dilution of the original sample for catalase reaction, V is the sample volume in catalase reaction, and t is the reaction duration (min).

[11] = test system: Pseudomonas aeruginosa ATCC27853; assay: Bacteriolytic assay (time-kill kinetic method, OD600); assay type: cell-based; details: Pseudomonas aeruginosa suspension, 2xMIC, after 240 min, compared to the 0 time value
Protocol: (§5) (1) Bacteriolytic Assay. […] Full growth of bacterium in MHB was diluted 100 times and incubated at 37°C to produce an OD600 of 0.8 as a starting inoculum. Sample solutions were added to the starting bacterial suspension to give a final concentration of 2xMIC and incubated at 37°C under agitation at 150 rpm. After the incubation period corresponding to 0, 15, 30, 60, 120, and 240 min, 100 μL was pipetted from each tube and the optical density was recorded at 600 nm using the Biobase UV-Vis spectrophotometer. Corresponding dilutions of test samples were used as blanks. Oxacillin was used as a positive control, and the tubes without an extract/compound served as negative controls. All the measurements were done in triplicate and repeated three times.

[12] = test system: Staphylococcus aureus ATCC25923; assay: as above; assay type: cell-based; details: Staphylococcus aureus ATCC25923 suspension, 2xMIC, after 240 min, compared to the 0 time value
Protocol: as §5

[13] = test system: superoxide dismutase (SOD); assay: Superoxide dismutase (SOD) activity in treated bacterial cell lysates; assay type: cell-based; details: Staphylococcus aureus ATCC25923 and MRSA03, MIC and 1/2xMIC, 24 h
Protocol: as §4
Superoxide dismutase (SOD) activity. This was determined using a kit (Sigma, catalogue no. 19160) in the cell lysate. […] The reaction mixture was incubated in the dark at 37°C for 20 min, and the absorbance was read at 450 nm on a BioTek Synergy 2 multiplate reader. The SOD activity was calculated based on the following formula: [(ABlank1–ABlank3) − (ASample–ABlank2)/(ABlank1–ABlank3) × 100], where Blank 1 contains ultrapure water, WST solution, and enzyme solution, Blank 2 contains sample solution, WST solution, and dilution buffer, and Blank 3 contains ultrapure water, WST solution, and dilution buffer.

red blood cells (RBCs) = assay type: cell-based, Wistar rats (Rattus norvegicus)
Protocol: Wistar rats (Rattus norvegicus) aged 10–12 weeks and weighing 220 to 250 g were randomly selected from our colony. Efforts were also made to minimize animal suffering and to reduce the number of animals used in the experiment. Intraperitoneal injection of the mixture of ketamine (50 mg/kg body weight, BW) and xylazine (10 mg/kg BW) was used to anaesthetize the rats in a dose that is commonly used for operation purposes. And subsequently, the unconscious animals were quickly operated on and the whole blood (10 mL) was collected by cardiac puncture into a conical tube containing Ethylenediaminetetraacetic Acid (EDTA) as an anticoagulant. Red blood cells were harvested by centrifugation at room temperature for 10 min at 1,000 × g and were washed three times in PBS buffer^23. The haemolysis assay was evaluated as previously described.

Compound	MMC/MIC [3]	MBC [3]	MIC [3]	MMC/MIC [5]	MBC [5]	MIC [5]	MBC (Escherichia coli S2(1))	MMC/MIC (Escherichia coli S2(1))	MIC (Escherichia coli S2(1))	MBC [6]	MMC/MIC [6]	MIC [6]	MBC [7]	MMC/MIC [7]	MIC [7]	also measured
O=c1cc(-c2ccc(O)c(O)c2)oc2cc(O)cc(O)c12 [compound 3, luteolin]	2	64 µg/mL (≈ 224 µM)	32 µg/mL (≈ 112 µM)	1	16 µg/mL (≈ 55.9 µM)	16 µg/mL (≈ 55.9 µM)	32 µg/mL (≈ 112 µM)	1	32 µg/mL (≈ 112 µM)	64 µg/mL (≈ 224 µM)	2	32 µg/mL (≈ 112 µM)	64 µg/mL (≈ 224 µM)	2	32 µg/mL (≈ 112 µM)	Gallic acid equivalent antioxidant capacity (GEAC) [1]: 68.30 ± 0.71^f μg/mL; MFC ([2]; Cryptococcus neoformans H99): 16 µg/mL (≈ 55.9 µM); MMC/MIC ([2]; Cryptococcus neoformans H99): 2; MIC ([2]; Cryptococcus neoformans H99, 72 h, 30°C, read-out: MIC): 8 µg/mL (≈ 27.9 µM); MFC ([4]; Candida albicans ATCC10231): 32 µg/mL (≈ 112 µM); MMC/MIC ([4]; Candida albicans ATCC10231): 2; MIC ([4]; Candida albicans ATCC10231, 48 h, 30°C, read-out: MIC): 16 µg/mL (≈ 55.9 µM); DPPH free radical scavenging activity (EC50) [8]: 8.02 ± 1.16^e μg/mL; MIC [9]: 62.5 µg/mL (≈ 218 µM); antimicrobial activity class of pure compounds by cutoff points ([10]; against specific microorganism, cutoff points of ref 33): significant/moderate; MIC ([10]; read-out: MIC (range over the tested microorganisms)): 8 to 32 µg/mL (≈ 27.9 to 112 µM)
Cc1onc(-c2ccccc2)c1C(=O)N[C@@H]1C(=O)N2[C@@H]1SC(C)(C)[C@@H]2C(=O)O [oxacillin, reference compound]	1	8 µg/mL (≈ 19.9 µM)	8 µg/mL (≈ 19.9 µM)	2	8 µg/mL (≈ 19.9 µM)	4 µg/mL (≈ 9.96 µM)	32 µg/mL (≈ 79.7 µM)	2	16 µg/mL (≈ 39.9 µM)	2 µg/mL (≈ 4.98 µM)	1	2 µg/mL (≈ 4.98 µM)	1 µg/mL (≈ 2.49 µM)	1	1 µg/mL (≈ 2.49 µM)	catalase activity vs untreated cell lysates (catalase): significant concentration-dependent decreases; decline in cell turbidity [11]: 2%; decline in cell turbidity [12]: 2%; SOD activity vs untreated cell lysates [13]: significant concentration-dependent decreases; MMC/MIC (microbicidal activities) ([10]; against all the tested microorganisms): ≤ 4
Triton X-100																lysis of RBCs (red blood cells (RBCs)): about 100%
